Data from paper PMC9414584, “Synthesis and Biological Evaluation of Indole-2-Carboxamides with Potent Apoptotic Antiproliferative Activity as EGFR/CDK2 Dual Inhibitors” (Pharmaceuticals, 2022).
“And” between values parts separate entries of the source, which are not always exact repeats. Equal values may be shown once.

Columns and labels:
p53 in MCF-7 = experiment: p53 transcription/level in MCF-7; type: cell-based, human; details: MCF-7 cells
From the text: p53 is a unique protein that participates in several physiological processes such as cell metabolism, stem cell maintenance, and cell adhesion. Because p53 is frequently inactivated in cancer cells, the cells are unable to undergo apoptosis. Similarly, activating, or stabilizing p53 aids cancer cells in normalizing p53-controlled physiological processes and increasing apoptotic activity.

[1] = test system: pancreas cancer cell line (Panc-1); experiment: Antiproliferative MTT assay, Panc-1; type: cell-based; details: Homo sapiens; Panc-1, MTT; read-out: Antiproliferative Activity IC50 ± SEM Panc-1
From the text: (§1) Using the MTT assay with doxorubicin as the reference drug, the antiproliferative activities of 5a–k, 6a–c, and 7 against four human cancer cell lines, including pancreas cancer cell line (Panc-1), breast cancer cell line (MCF-7), colon cancer cell line (HT-29), and epithelial cancer cell line (A-549) were investigated.

[2] = Cell viability assay (MTT) on MCF-10A cells; type: cell-based; details: human, MCF-10A mammary gland epithelial cells
Experimental: (§2) The MCF-10A (human mammary gland epithelial) cell line was used in the cell viability experiment. Compounds 5a–k, 6a–c, and 7 were incubated with MCF-10A cells for 4 days at 50 µM concentration, and the viability of cells was determined using the 3-(4,5-dimethylthiazol-2-yl)-2,5-diphenyltetrazolium bromide (MTT) test.. All compounds had no cytotoxic effects, and the vitality of the cells was more than 83% for most of the compounds examined.
as §2, with “test.” for “test.. All compounds had no cytotoxic effects, and the vitality of the cells was more than 83% for most of the compounds examined.”

[3] = test system: four human cancer cell lines (Panc-1, MCF-7, HT-29, A-549); experiment: Antiproliferative MTT assay, average of four cancer cell lines (mean GI50); type: cell-based; details: Homo sapiens; average of A-549, MCF-7, Panc-1, HT-29; read-out: Antiproliferative Activity IC50 Average (GI50 against the four cell lines)
[4] = test system: epithelial cancer cell line (A-549); experiment: Antiproliferative MTT assay, A-549; type: cell-based; details: Homo sapiens, A549; A-549, MTT; read-out: Antiproliferative Activity IC50 ± SEM A-549
From the text: as §1

CDK2 enzyme = CDK2 enzyme (Homo sapiens, UniProt P24941); experiment: CDK2 inhibitory assay
[5] = test system: Caspase-8 in MCF-7 breast cancer cell line; experiment: Caspase-8 level in MCF-7 cells; type: cell-based, human; details: for Caspase-8 Fold Change: vs control cells
EGFR = EGFR (Homo sapiens, UniProt P00533); experiment: EGFR-TK inhibitory assay; type: biochemical; details: read-out: EGFR Inhibition IC50 ± SEM
[6] = test system: breast cancer cell line (MCF-7); experiment: Antiproliferative MTT assay, MCF-7; type: cell-based; details: Homo sapiens, MCF7; MCF-7, MTT; read-out: Antiproliferative Activity IC50 ± SEM MCF-7
From the text: as §1

[7] = test system: Bcl-2 in breast cancer cell line (MCF-7); experiment: Bcl-2 level assay in MCF-7 cells; type: cell-based, human; details: for Bcl-2 Fold Change: reduced level vs control
[8] = test system: Caspase-3 in MCF-7 breast cancer cell line; experiment: Caspase-3 level in MCF-7 cells; details: for Caspase-3 Fold Change: vs control untreated cells
[9] = test system: Cytochrome C in MCF-7 human breast cancer cell line; experiment: Cytochrome C assay in MCF-7 cells; type: cell-based; details: for Cytochrome C Fold Change: vs untreated control cells
Experimental: The quantity of cytochrome C within the cell is important for activating caspases and commencing the intrinsic apoptosis process. […] The findings add to the evidence that apoptosis can be attributed to Cytochrome C overexpression and activation of the intrinsic apoptotic pathway triggered by the investigated compounds.
Indole-2-carboxamide derivatives 5d, 5e, and 5h were evaluated as Cytochrome C activators in the MCF-7 human breast cancer cell line.

[10] = test system: Bax in breast cancer cell line (MCF-7); experiment: Bax level assay in MCF-7 cells; type: cell-based, human; details: for Bax Fold Change: increase over control untreated cells
[11] = test system: colon cancer cell line (HT-29); experiment: Antiproliferative MTT assay, HT-29; type: cell-based; details: Homo sapiens; HT-29, MTT; read-out: Antiproliferative Activity IC50 ± SEM HT-29
From the text: as §1

[12] = test system: Caspase-9 in MCF-7 breast cancer cell line; experiment: Caspase-9 level in MCF-7 cells; type: cell-based, human; details: for Caspase-9 Fold Change: vs control cells
[13] = test system: A549 lung, MCF-7 breast, Panc-1 Pancreatic, and HT-29 colon cancer cell lines; parameters: method as in PMID 31128433; details: A549, MCF-7, Panc-1, HT-29; read-out: GI50 against the four examined cell lines (mean GI50); cited from earlier work

Sequence of EGFR (P00533 25-1210): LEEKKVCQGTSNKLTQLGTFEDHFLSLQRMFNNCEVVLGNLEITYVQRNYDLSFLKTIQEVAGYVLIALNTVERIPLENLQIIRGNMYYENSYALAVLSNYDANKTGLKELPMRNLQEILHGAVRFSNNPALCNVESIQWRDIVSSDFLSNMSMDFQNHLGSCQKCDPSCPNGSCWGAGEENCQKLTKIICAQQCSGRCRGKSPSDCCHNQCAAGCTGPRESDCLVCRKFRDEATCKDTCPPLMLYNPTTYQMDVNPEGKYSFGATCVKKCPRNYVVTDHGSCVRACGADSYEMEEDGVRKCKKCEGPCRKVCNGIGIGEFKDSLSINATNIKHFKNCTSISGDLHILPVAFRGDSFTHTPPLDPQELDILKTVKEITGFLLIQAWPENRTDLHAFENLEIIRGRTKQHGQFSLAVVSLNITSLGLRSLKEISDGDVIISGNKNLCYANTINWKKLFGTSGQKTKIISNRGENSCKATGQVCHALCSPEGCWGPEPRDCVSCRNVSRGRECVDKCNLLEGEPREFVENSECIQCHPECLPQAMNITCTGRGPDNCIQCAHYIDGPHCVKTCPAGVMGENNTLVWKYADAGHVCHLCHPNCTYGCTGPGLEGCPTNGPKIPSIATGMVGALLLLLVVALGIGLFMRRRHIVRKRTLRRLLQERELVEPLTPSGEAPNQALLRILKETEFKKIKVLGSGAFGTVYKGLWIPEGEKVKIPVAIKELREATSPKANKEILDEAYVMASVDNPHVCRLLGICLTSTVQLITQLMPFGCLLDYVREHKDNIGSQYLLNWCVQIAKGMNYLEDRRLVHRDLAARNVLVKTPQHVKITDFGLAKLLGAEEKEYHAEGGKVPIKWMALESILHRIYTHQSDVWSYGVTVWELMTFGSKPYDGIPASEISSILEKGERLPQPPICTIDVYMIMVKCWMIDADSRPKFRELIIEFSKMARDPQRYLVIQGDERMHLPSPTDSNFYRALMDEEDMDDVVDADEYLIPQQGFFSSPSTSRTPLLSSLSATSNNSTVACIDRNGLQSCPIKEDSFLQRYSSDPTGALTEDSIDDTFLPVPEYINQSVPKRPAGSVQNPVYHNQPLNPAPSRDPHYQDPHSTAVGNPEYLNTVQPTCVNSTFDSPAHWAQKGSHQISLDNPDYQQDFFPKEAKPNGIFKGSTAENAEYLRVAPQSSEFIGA

| Structure (SMILES) | p53 Conc (p53 in MCF-7) | IC50 [1] [nM] | IC50 [3] [nM] | IC50 [4] [nM] | Caspase-8 Conc [5] [ng/mL] | Caspase-8 Fold Change [5] [fold] | IC50 [6] [nM] | Bcl-2 Conc [7] [ng/mL] | Bcl-2 Fold Change [7] [fold] | Caspase-3 Conc [8] [pg/mL] | Caspase-3 Fold Change [8] [fold] | Cytochrome C Conc [9] [ng/mL] | Cytochrome C Fold Change [9] [fold] | Bax Conc [10] | Bax Fold Change [10] [fold] | IC50 [11] [nM] | Caspase-9 Conc [12] [ng/mL] | Caspase-9 Fold Change [12] [fold] | further results |
| --- | --- | --- | --- | --- | --- | --- | --- | --- | --- | --- | --- | --- | --- | --- | --- | --- | --- | --- | --- |
| Cc1c(C(=O)NCCc2ccc(N3CCCC3C)cc2)[nH]c2ccc(Cl)cc12 (stereo not shown) [Compound 5e, 5-Chloro-3-methyl-N-(4-(2-methylpyrrolidin-1-yl)phenethyl)-1H-indole-2-carboxamide] | 1435 pg/mL and 1435 ± 15 pg/mL | 1000 ± 200 | 950 | 950 ± 50 | 2.17 | 10.90 | 800 ± 50 | 0.87 | 5.90 | 635.50 ± 5.50 | 9.70 | 0.80 | 16 | 296.50 pg/mL and 296.50 ± 2.50 pg/mL | 36 | 1100 ± 100 | 17.25 | 18.15 | viability at 4 days, 50 µM [2]: 93%; IC50 (CDK2 enzyme): 13 ± 1 nM; fold more active than dinaciclib on CDK2 (CDK2 enzyme; vs reference dinaciclib): 1.5 fold; IC50 (EGFR): 93 ± 8 nM |
| COc1cccc2c1C(=O)c1c(O)c3c(c(O)c1C2=O)C[C@@](O)(C(=O)CO)C[C@@H]3O[C@H]1C[C@H](N)[C@H](O)[C@H](C)O1 [Doxorubicin, reference compound] | 1265 ± 10 pg/mL | 1400 ± 200 | 1100 | 1200 ± 200 | 1.80 | 9.00 | 900 ± 100 | 0.98 | 5.20 | 503.50 ± 4.50 | 7.70 | 0.60 | 12 | 275.80 ± 2.50 pg/mL | 33 | 1000 ± 100 | 16.25 | 17.00 | p53 Fold Change (p53 in MCF-7; vs control): 25 fold; p53 Conc (p53 in MCF-7; listed as doxorubicin): 1265 pg/mL; GI50 [13]: 1130 nM |
